Source: patent US9977009B2, “Planar patch clamp device and planar patch clamp system” (Japan Science and Technology Agency, priority 2013, dated 2018)

Legend:
[1] = system: nerve cells obtained by dissecting the cerebral cortex of a rat (neuron network); test: Channel current measurement of a neuron network with the composite multi-channel type planar patch clamp device (whole-cell mode); format: cell-based; conditions: applied membrane potential −20 mV; for increase of large area pulse channel current in the state of glutamic acid toxicity: CNQX (200 μM) and D-AP5 (200 μM) added together after 20 μM glutamic acid, about 60 minutes, FIG. 12(c)
Source text: The composite multi-channel type planar patch clamp device (1b) of the present invention was used to conduct experiments showing that high throughput screening of drugs acting on a neural network is possible. At the cell fixing locations (24) of the Si substrate surface (2S) having approximately 2 micron size through holes (3) of the composite multi-channel type planar patch clamp device (1b) shown in FIG. 5, nerve cells (5) obtained by dissecting the cerebral cortex of a rat on day 17 of birth were seeded. The commercially available nerve cell medium (Sumitomo Bakelite) was added and the result cultured in a dish for 11 days to form a neuron network which was then observed by an optical microscope (FIG. 10). Next, the Si substrate (2) on which the nerve cells (5) were placed was set on the composite multi-channel type planar patch clamp device (1b) and the reservoir sections (22) of the first reservoir (6) were filled with the bath solution (145 mM NaCl+3 mM KCl+10 mM HEPES+2 mM CaCl2+8 mM Glucose+1 mM MgCl2.6H2O, pH7.3). […] A flat baseline was recorded without regard to the applied membrane potential. […] After measurement for about 60 minutes, to one reservoir section (22) of the first reservoir, a bath solution comprising the AMPA receptor antagonist 6-cyano-7-nitroquinoxaline-2,3-dione (CNQX)(200 μM) and NMDA receptor antagonist D-(−)-2-amino-5-phosphonopentanoic acid (D-AP5) (200 μM) dissolved in it was introduced and the channel current was again measured (FIG. 11C). […] To show these states clearer, the channel current of the applied membrane potential −20 mV was focused on and the area of each pulse-like wavelength observed was calculated. […] By filling the other reservoir sections (22) with other candidate drugs, making the valves (10) of the branch supply path (8b) and branch discharge path (9b) corresponding to the measured section the opened state, making the other valves (10) the closed state, and similarly measuring the channel current, it is possible to measure the effect of a candidate drug on the neuron network. […]

[2] = system: Cerebral cortex cells of a rat (neuron network); test: Ca^2+ imaging of a neuron network; format: cell-based; conditions: buffer solution (500 μl) containing 10 μM glutamic acid added; FIG. 13(b)
Experimental: Inside the 35 mm dish (a), the substrate of FIG. 6 (finished being coated by PLL) was placed. Cerebral cortex cells of a rat on day 17 of birth isolated by the enzyme trypsin were suspended by a commercially available nerve cell medium (Sumitomo Bakelite) to give 2.5×10^5 cells/ml. This cell suspension: 2 ml (=5.0×10^5 cells) was added to the dish (a). In the presence of 5% CO2, this was cultured at 37° C. for 17 days. After formation of the neuron network, this substrate was transferred to another dish (b). To this dish (b), a nerve cell medium (2 ml) was added. To this medium, BAPTA-1 (1 μl) and Cremophor (10 μl) were added and cultured at 37° C. for 1 hour. The culture supernatant was discarded and a buffer solution (145 mM NaCl+10 mM HEPES+8 mM Glucose+3 mM KCl+2 mM CaCl2+1 mM MgCl2, pH7.3): 2 ml was added. This was stored at room temperature away from the light until right before use and the Ca^2+ fluorescence intensity was measured (Ca^2+ imaging measurement) (FIG. 13(a)). After this, a buffer solution (500 μl) containing 10 μM concentration glutamic acid was added. After 2.5 minutes, time lapse measurement of Ca^2+ imaging was started (FIG. 13(b)). After 9.5 minutes, an antagonist mixture: 10 μl containing 2.5 mM D-AP5 and 2.5 mM CNQX was added. Furthermore, after 10.5 minutes, time lapse measurement of Ca^2+ imaging was performed (FIG. 13(c)).

For N#Cc1cc2c(cc1[N+](=O)[O-])=NC(=O)C(=O)N=2 [CNQX, 6-cyano-7-nitroquinoxaline-2,3-dione], the “increase of large area pulse channel current in the state of glutamic acid toxicity” value [1] was “substantially eliminated”.

With N[C@@H](CCC(=O)O)C(=O)O [glutamic acid] the “concentration of Ca^2+ in the cells” value [2] was “rise in a fluctuating manner” and the “large area pulse channel current” value ([1]; glutamic acid added to first reservoir, final concentration 20 μM, FIG. 12(b)) was “increases”.

In the case of N[C@H](CCCP(=O)(O)O)C(=O)O [D-AP5, D-(−)-2-amino-5-phosphonopentanoic acid], the “increase of large area pulse channel current in the state of glutamic acid toxicity” value [1] is reported as “substantially eliminated”.
